According to the OPERA property sets (Mansouri et al. 2018):

Details: not given

In order of rising melting point:
1. FC(F)=C(F)C(F)=C(F)F  -132 °C
2. C1CC1  -127 °C
3. C/C=C/CC(C)C  -124 °C
4. CCCC(C)CCC  -121 °C
5. ClCCCCl  -99.5 °C
6. Fc1cccc(C(F)(F)F)c1  -81.5 °C
7. CC(=O)CCC(C)C  -74 °C
8. COCCOC(C)=O  -70 °C
9. CC1CCCC(C)(C)C1 (stereo unspecified)  -65.7 °C
10. ClC=CCl  -57 °C
11. COC(=O)CCCC(=O)OC  -42.5 °C
12. CC(O)C#N (stereo unspecified)  -40 °C
13. CC(CCl)OP(=O)(OC(C)CCl)OC(C)CCl (stereo unspecified)  -40 °C
14. COC(F)(F)C(Cl)Cl  -35 °C
15. Brc1ccccc1  -30.6 °C
16. C=CC(C)(C)O  -28 °C
17. CCOC(=O)C(Cl)Cc1cc(-n2nc(C)n(C(F)F)c2=O)c(F)cc1Cl (stereo unspecified)  -22.1 °C
18. CCCCC=CC(=O)O  -19 °C
19. CC(Br)C(Br)CBr (stereo unspecified)  -19 °C
20. CCOP(=S)(NC(C)C)Oc1ccccc1C(=O)OC(C)C (stereo unspecified)  -12 °C
21. CCCCC(=O)c1ccccc1  -9.4 °C
22. CCCCCCCCCCCCCC(=O)OC(C)C  3 °C
23. CCCCCCCCCCCCCc1ccccc1  10 °C
24. COS(C)(=O)=O  20 °C
25. CC(C)c1cccc(O)c1  26 °C
26. CC(C)(c1ccccc1)c1ccccc1  29 °C
27. Nc1c(F)c(F)c(F)c(F)c1F  35.5 °C
28. CCB(O)O  40 °C
29. CCS(=O)(=O)c1ccccc1  42 °C
30. O=C(Cl)c1ccc(Br)cc1  42 °C
31. COc1ccc2c(c1)CCCN2  42.5 °C
32. FC(F)OC(Cl)C(F)(F)F (stereo unspecified)  48.5 °C
33. Nc1ccc(-c2ccccc2)cc1  53.5 °C
34. CC1=C(C)C(=O)C=CC1=O  55 °C
35. CCCCCCCCCCCCCCCCCCO  59.5 °C
36. Cc1nc2cc(-c3ccccc3)ccc2o1  63 °C
37. CN1CSCSC1  65 °C
38. CC(C)(Cl)CCC(C)(C)Cl  67.5 °C
39. COc1cccc(CC(=O)O)c1  72 °C
40. C=Cc1ccc(O)cc1  73.5 °C
41. c1cnc2cccnc2c1  75 °C
42. O[C@@H]1CO[C@H]2[C@@H]1OC[C@@H]2O  75.2 °C
43. O=C(O)Cc1ccccc1  76.5 °C
44. O=S(=O)(Cl)c1ccc2ccccc2c1  81 °C
45. Oc1cc(Br)cc(Br)c1  81 °C
46. CCCc1ccc(O)cc1O  82.5 °C
47. C=CC(N)=O  84.5 °C
48. CC(=O)CC(=O)c1cccnc1  85 °C
49. CCNC(=O)C1CC(C)CCC1C(C)C (stereo unspecified)  88 °C
50. Cc1cnc(C)[nH]1  92 °C
51. Nc1cc(Cl)c(Cl)cc1Cl  96.5 °C
52. CCOCn1c(-c2ccc(Cl)cc2)c(C#N)c(Br)c1C(F)(F)F  100 °C
53. CCNc1nc(NC(C)(C)C)nc(SC)n1  104 °C
54. COC(=O)C1(S(=O)(=O)c2ccc(Br)cc2)CCCC1  104 °C
55. Nc1ccc(Br)cc1[N+](=O)[O-]  112 °C
56. COc1ccc2c(c1O)-c1cccc3c1C(C2)N(C)CC3 (stereo unspecified)  124 °C
57. CCC1(C)CC(=O)NC(=O)C1  126 °C
58. O=[N+]([O-])c1cc(Cl)c(O)c(Cl)c1  127 °C
59. Nc1cc(S(N)(=O)=O)ccc1S(=O)(=O)CCCO  137 °C
60. CC(C)(C)NCC(O)c1ccc(O)c(CO)c1 (stereo unspecified)  151 °C
61. CN1CC(C(=O)O)CC1=O (stereo unspecified)  152 °C
62. O=C1CCCC(=O)N1  156 °C
63. C=CCC1(c2ccccc2)C(=O)NC(=O)NC1=O  156 °C
64. CC(=O)OCC1=C(C(=O)O)N2C(=O)[C@@H](NC(=O)Cc3cccs3)[C@H]2SC1  160 °C
65. Cc1occc(=O)c1O  162 °C
66. CC1=C(C)S(=O)(=O)CCS1(=O)=O  165 °C
67. O=C1c2ccccc2C(=O)c2c(NCCO)cccc21  168 °C
68. Cc1ccc2cc3c(ccc4ccccc43)c3c2c1CC3  180 °C
69. C/N=C(\NC)NCc1ccccc1  196 °C
70. CN1[C@H]2CC[C@@H]1[C@@H](C(=O)O)[C@H](O)C2  205 °C
71. COc1cc([C@@H]2c3cc4c(cc3[C@H](O)[C@H]3COC(=O)[C@@H]23)OCO4)cc(OC)c1OC  206 °C
72. COc1cc(NCc2ccc3nc(N)nc(N)c3c2C)cc(OC)c1OC  216 °C
73. CO[C@H]1[C@H](O)[C@H](O[C@H]2CC[C@@]3(C)[C@H](CC[C@@H]4[C@@H]3CC[C@]3(C)[C@@H](C5=CC(=O)OC5)CC[C@]43O)C2)O[C@@H](C)[C@@H]1O  221 °C
74. CN(C)CCc1c[nH]c2cccc(OP(=O)(O)O)c12  224 °C
75. C[C@]12CC[C@H](O)C=C1CC[C@@H]1[C@@H]2CC[C@]2(C)[C@@H](c3ccc(=O)oc3)CC[C@]12O  235 °C
76. O=C(O)c1cc(I)cc(I)c1O  236 °C
77. Cc1csc(NS(=O)(=O)c2ccc(N)cc2)n1  237 °C
78. NCCC(=O)N[C@@H](Cc1c[nH]cn1)C(=O)O  260 °C
79. O=C1NCCN1c1ncc([N+](=O)[O-])s1  261 °C
80. Cc1c[nH]c(=O)[nH]c1=O  316 °C
81. O=C(O)c1cccc(C(=O)O)c1  347 °C

In order of falling log10 vapour pressure (mmHg):
1. C1CC1  3.73
2. ClC=CCl  2.3
3. CCCC(C)CCC  1.31
4. C[C@@H]1CCCCN1  1.29
5. ClCCCCl  1.26
6. C=CC(=O)OCCC  1.16
7. CC1CCCC(C)(C)C1 (stereo unspecified)  1.03
8. CC(=O)CCC(C)C  0.761
9. Cc1csc(C)n1  0.706
10. Brc1ccccc1  0.621
11. CCCCOCC1CO1 (stereo unspecified)  0.505
12. O=[N+]([O-])CBr  0.491
13. COCCOC(C)=O  0.301
14. COCCOCCO  -0.602
15. COC(=O)CCCC(=O)OC  -0.745
16. CC(O)C#N (stereo unspecified)  -0.925
17. CC(C)c1cccc(O)c1  -1.16
18. C=Cc1ccc(O)cc1  -1.85
19. C=CC(N)=O  -2.15
20. O=C(O)Cc1ccccc1  -2.42
21. CCCCCCCCCCCCCC(=O)OC(C)C  -4.03
22. CCOP(=S)(OCC)Oc1nc(Cl)n(C(C)C)n1  -4.06
23. CCCCCCCCCCCCCc1ccccc1  -4.9
24. CCOP(=S)(NC(C)C)Oc1ccccc1C(=O)OC(C)C (stereo unspecified)  -5.52
25. CCCCCCCCCCCCCCCCCCO  -5.57
26. CCNc1nc(NC(C)(C)C)nc(SC)n1  -5.77
27. CC1=C(C)S(=O)(=O)CCS1(=O)=O  -6.42
28. CCOC(=O)C(Cl)Cc1cc(-n2nc(C)n(C(F)F)c2=O)c(F)cc1Cl (stereo unspecified)  -6.92
29. Cc1ccc2cc3c(ccc4ccccc43)c3c2c1CC3  -7.37
30. O=C1c2ccccc2C(=O)c2c(NCCO)cccc21  -11
31. O=C(NC(=O)c1c(F)cccc1F)Nc1ccc(Cl)c(Oc2ncc(C(F)(F)F)cc2Cl)c1  -12

In order of falling boiling point:
1. CCOC(=O)C(Cl)Cc1cc(-n2nc(C)n(C(F)F)c2=O)c(F)cc1Cl (stereo unspecified)  352 °C
2. CCCCCCCCCCCCCc1ccccc1  346 °C
3. Cc1ccc(N(CCO)CCO)cc1  339 °C
4. Nc1ccc(-c2ccccc2)cc1  302 °C
5. COc1ccc2c(c1)CCCN2  284 °C
6. CC(C)(c1ccccc1)c1ccccc1  282 °C
7. Oc1cc(Br)cc(Br)c1  274 °C
8. Nc1cc(Cl)c(Cl)cc1Cl  270 °C
9. Cc1cnc(C)[nH]1  267 °C
10. O=C(O)Cc1ccccc1  266 °C
11. O=C(Cl)c1ccc(Br)cc1  246 °C
12. CCCCC(=O)c1ccccc1  245 °C
13. CC(C)c1cccc(O)c1  228 °C
14. CC(=O)CCCCO  227 °C
15. CCCCC=CC(=O)O  226 °C
16. CC(Br)C(Br)CBr (stereo unspecified)  220 °C
17. COC(=O)CCCC(=O)OC  214 °C
18. COS(C)(=O)=O  203 °C
19. CCCCOC(=O)C(Cl)Cl  194 °C
20. COCCOCCO  193 °C
21. C=CC(N)=O  193 °C
22. CCN(CC)CCCO  190 °C
23. CN1CSCSC1  185 °C
24. CCCCOC(=O)CCl  183 °C
25. CC(O)C#N (stereo unspecified)  183 °C
26. CCCCOCC1CO1 (stereo unspecified)  165 °C
27. OC1CC=CCC1 (stereo unspecified)  164 °C
28. CCCCC(=O)CCC  163 °C
29. Brc1ccccc1  156 °C
30. Nc1c(F)c(F)c(F)c(F)c1F  153 °C
31. O=[N+]([O-])CBr  149 °C
32. Cc1csc(C)n1  146 °C
33. CC(=O)CCC(C)C  144 °C
34. COCCOC(C)=O  143 °C
35. CC1CCCC(C)(C)C1 (stereo unspecified)  137 °C
36. ClCCCCl  121 °C
37. C[C@@H]1CCCCN1  120 °C
38. CCCC(C)CCC  118 °C
39. CC(C)(Br)Br  115 °C
40. COC(F)(F)C(Cl)Cl  105 °C
41. Fc1cccc(C(F)(F)F)c1  102 °C
42. C=CC(C)(C)O  97 °C
43. CCCC(C)N (stereo unspecified)  92 °C
44. C/C=C/CC(C)C  88.1 °C
45. FC(Br)C(F)(F)Br (stereo unspecified)  76 °C
46. ClC=CCl  55 °C
47. FC(F)OC(Cl)C(F)(F)F (stereo unspecified)  48.5 °C
48. CN1CC1  27.5 °C
49. FC(F)=C(F)C(F)=C(F)F  6 °C
50. C1CC1  -32.8 °C

In the case of O=Cc1cccc(Oc2ccccc2)c1, the ready biodegradability is reported as “not readily biodegradable”.
In the case of ClC=CCl, the ready biodegradability is reported as “not readily biodegradable”.
With O=C(O)c1cccc(C(=O)O)c1 the ready biodegradability was “readily biodegradable”.
In the case of CCNc1nc(NC(C)(C)C)nc(SC)n1, the ready biodegradability is reported as “not readily biodegradable”.
For COC(=O)CCCC(=O)OC, the ready biodegradability was “readily biodegradable”.
In the case of C=CC(N)=O, the ready biodegradability is reported as “readily biodegradable”.
With COCCOC(C)=O the ready biodegradability was “readily biodegradable”.
With CCCCCCCCCCCCCCCCCCO the ready biodegradability was “readily biodegradable”.
For CC(CCl)OP(=O)(OC(C)CCl)OC(C)CCl (stereo unspecified), the ready biodegradability was “not readily biodegradable”.
In the case of Cc1ccc2cc3c(ccc4ccccc43)c3c2c1CC3, the ready biodegradability is reported as “not readily biodegradable”.
For Brc1ccccc1, the ready biodegradability was “not readily biodegradable”.
In the case of O=C(O)Cc1ccccc1, the ready biodegradability is reported as “readily biodegradable”.
In the case of CCCCCCCCC=CCCCCCCCC(=O)OCCCC, the ready biodegradability is reported as “readily biodegradable”.
In the case of CCCCOCC1CO1 (stereo unspecified), the ready biodegradability is reported as “readily biodegradable”.

In order of rising log10 Koc (L/kg):
1. CC1=C(C)S(=O)(=O)CCS1(=O)=O  0.48
2. O=C(O)Cc1ccccc1  1.45
3. C=CC(N)=O  1.7
4. CCOP(=S)(OCC)Oc1nc(Cl)n(C(C)C)n1  2.01
5. Brc1ccccc1  2.49
6. CCOP(=S)(NC(C)C)Oc1ccccc1C(=O)OC(C)C (stereo unspecified)  2.78
7. CCNc1nc(NC(C)(C)C)nc(SC)n1  2.85
8. Cc1ccc2cc3c(ccc4ccccc43)c3c2c1CC3  6.1

In order of rising log10 Henry constant (atm·m³/mol):
1. C=CC(C)(C)O  -4.68
2. Clc1ccc(Cl)c(-c2c(Cl)c(Cl)cc(Cl)c2Cl)c1Cl  -4.62
3. ClCCCCl  -3.01
4. Brc1ccccc1  -2.61
5. COC(F)(F)C(Cl)Cl  -2.43
6. ClC=CCl  -2.39
7. FC(F)OC(Cl)C(F)(F)F (stereo unspecified)  -1.54

CCCC(C)CCC showed a log10 biodegradation half-life (days) of 0.602.

In the case of CCCCCCCCCCCCCCCCCCO, the log10 Koa is reported as 10.9.

Same assay, conditions: fish

In order of rising log10 BCF:
1. CC(CCl)OP(=O)(OC(C)CCl)OC(C)CCl (stereo unspecified)  0.9
2. Brc1ccccc1  1.36
3. CCOP(=S)(NC(C)C)Oc1ccccc1C(=O)OC(C)C (stereo unspecified)  2.12
4. Nc1cc(Cl)c(Cl)cc1Cl  2.33

In order of falling log10 biotransformation half-life (days):
1. Nc1cc(Cl)c(Cl)cc1Cl  -0.01
2. CCOP(=S)(NC(C)C)Oc1ccccc1C(=O)OC(C)C (stereo unspecified)  -0.51
3. Brc1ccccc1  -1.19
4. CC(CCl)OP(=O)(OC(C)CCl)OC(C)CCl (stereo unspecified)  -1.31
